Measurements: ChEMBL document CHEMBL3431459, “Roche carnitine palmitoyltransferase modulator screening data (supplementary data associated with the publication CHEMBL2216752)”
In brackets after ≈: the same amount, converted by molar mass.

Experiments:
[1] = SUPPLEMENTARY: PAMPA permeability assay; type: physicochemical; conditions: read-out: Permeability
[2] = target: T1, Carnitine O-palmitoyltransferase 2, mitochondrial (Homo sapiens, UniProt P23786); experiment: (§1) SUPPLEMENTARY: Inhibition of Carnitine palmitoyltransferase 2
T1 sequence (P23786 whole entry): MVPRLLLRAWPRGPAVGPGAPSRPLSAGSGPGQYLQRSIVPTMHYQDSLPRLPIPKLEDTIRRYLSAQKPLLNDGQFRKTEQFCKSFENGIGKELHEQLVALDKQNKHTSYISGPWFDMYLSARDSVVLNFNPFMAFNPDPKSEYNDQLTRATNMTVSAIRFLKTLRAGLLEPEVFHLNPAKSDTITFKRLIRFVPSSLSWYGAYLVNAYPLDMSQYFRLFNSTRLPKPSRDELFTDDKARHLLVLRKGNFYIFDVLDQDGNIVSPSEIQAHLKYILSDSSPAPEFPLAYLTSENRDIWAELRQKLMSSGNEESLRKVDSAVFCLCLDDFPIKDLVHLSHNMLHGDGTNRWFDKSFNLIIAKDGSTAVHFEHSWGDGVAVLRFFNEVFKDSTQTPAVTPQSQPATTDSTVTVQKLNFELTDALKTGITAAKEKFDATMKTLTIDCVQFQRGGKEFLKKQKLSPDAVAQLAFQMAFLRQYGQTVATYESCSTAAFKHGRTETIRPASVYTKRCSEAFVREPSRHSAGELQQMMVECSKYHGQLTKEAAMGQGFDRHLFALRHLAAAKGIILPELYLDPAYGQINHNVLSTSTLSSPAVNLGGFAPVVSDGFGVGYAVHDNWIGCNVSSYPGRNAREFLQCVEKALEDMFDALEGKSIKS

[3] = target: T2, Carnitine O-palmitoyltransferase 2, mitochondrial (Rattus norvegicus, UniProt P18886); experiment: as §1
T2 sequence (P18886 whole entry): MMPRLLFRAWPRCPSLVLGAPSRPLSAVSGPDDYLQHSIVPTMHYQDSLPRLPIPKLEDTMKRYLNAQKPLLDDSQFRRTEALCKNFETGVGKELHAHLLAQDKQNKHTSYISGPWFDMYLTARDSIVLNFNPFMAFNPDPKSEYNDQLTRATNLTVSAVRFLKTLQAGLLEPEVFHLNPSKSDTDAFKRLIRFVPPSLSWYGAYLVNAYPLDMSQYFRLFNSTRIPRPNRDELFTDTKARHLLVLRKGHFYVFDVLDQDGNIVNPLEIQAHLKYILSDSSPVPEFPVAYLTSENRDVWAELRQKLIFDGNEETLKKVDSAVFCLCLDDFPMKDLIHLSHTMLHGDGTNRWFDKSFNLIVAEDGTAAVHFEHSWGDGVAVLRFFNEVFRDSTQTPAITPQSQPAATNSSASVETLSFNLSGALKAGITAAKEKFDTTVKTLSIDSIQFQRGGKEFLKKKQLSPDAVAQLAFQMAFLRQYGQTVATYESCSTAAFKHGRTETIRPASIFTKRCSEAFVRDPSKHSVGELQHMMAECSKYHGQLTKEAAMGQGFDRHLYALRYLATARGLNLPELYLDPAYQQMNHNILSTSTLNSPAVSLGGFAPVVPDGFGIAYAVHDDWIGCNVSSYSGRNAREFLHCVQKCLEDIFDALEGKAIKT

[4] = SUPPLEMENTARY: Lyophilisation Solubility Assay (LYSA); type: physicochemical; conditions: read-out: Kinetic_solubility
[5] = target: T3, Carnitine O-palmitoyltransferase 1, liver isoform (Homo sapiens, UniProt P50416); experiment: (§2) SUPPLEMENTARY: Inhibition of Carnitine palmitoyltransferase 1, liver isoform
T3 sequence (P50416 whole entry): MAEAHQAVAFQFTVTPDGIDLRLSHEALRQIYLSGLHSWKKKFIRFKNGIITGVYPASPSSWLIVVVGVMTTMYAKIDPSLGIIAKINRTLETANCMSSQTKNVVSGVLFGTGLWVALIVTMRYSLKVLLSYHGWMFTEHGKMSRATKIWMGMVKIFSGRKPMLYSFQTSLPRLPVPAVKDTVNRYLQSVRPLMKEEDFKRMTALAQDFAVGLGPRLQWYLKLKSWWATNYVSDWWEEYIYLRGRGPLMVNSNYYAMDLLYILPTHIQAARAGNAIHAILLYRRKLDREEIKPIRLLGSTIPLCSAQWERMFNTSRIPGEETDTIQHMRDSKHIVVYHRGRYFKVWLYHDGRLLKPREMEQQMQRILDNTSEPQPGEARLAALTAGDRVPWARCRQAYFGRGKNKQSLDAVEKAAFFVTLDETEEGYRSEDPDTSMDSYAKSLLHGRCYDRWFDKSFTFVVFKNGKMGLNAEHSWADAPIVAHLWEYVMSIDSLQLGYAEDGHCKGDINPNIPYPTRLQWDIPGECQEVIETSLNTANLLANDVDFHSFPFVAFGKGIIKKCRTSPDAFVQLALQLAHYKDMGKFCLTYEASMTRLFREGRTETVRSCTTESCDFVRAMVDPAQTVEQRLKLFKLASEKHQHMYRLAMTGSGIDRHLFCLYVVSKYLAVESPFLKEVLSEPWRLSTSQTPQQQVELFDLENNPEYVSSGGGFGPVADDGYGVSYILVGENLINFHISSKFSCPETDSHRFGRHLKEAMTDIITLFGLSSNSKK

[6] = target: T4, Carnitine O-palmitoyltransferase 1, liver isoform (Rattus norvegicus, UniProt P32198); experiment: as §2
T4 sequence (P32198 whole entry): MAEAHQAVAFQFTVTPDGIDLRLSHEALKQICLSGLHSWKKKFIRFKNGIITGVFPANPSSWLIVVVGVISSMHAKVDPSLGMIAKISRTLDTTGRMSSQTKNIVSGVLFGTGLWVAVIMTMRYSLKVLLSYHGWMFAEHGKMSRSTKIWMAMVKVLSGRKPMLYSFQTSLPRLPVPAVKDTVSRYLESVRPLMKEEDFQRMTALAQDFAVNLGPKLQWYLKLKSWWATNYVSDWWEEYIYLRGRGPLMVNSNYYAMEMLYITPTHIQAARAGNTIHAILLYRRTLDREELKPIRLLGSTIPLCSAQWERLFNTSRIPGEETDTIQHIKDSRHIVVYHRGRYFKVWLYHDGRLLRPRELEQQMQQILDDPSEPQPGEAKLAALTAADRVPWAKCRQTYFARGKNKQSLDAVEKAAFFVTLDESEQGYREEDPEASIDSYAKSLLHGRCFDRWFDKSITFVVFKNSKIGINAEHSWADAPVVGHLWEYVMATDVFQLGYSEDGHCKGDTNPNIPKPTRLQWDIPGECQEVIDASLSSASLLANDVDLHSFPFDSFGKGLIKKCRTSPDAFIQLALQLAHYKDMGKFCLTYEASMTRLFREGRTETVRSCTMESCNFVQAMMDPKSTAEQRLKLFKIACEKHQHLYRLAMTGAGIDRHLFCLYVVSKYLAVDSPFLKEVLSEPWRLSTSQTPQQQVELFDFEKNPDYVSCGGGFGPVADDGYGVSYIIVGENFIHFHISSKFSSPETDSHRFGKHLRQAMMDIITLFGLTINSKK

[7] = SUPPLEMENTARY: Lipophilicity (log D) Determination by high-throughput shake-flask; type: physicochemical; conditions: octanol/water
[8] = target: T5, Carnitine O-palmitoyltransferase 1, muscle isoform (Homo sapiens, UniProt Q92523); experiment: SUPPLEMENTARY: Inhibition of Carnitine palmitoyltransferase 1, muscle isoform; design: species or system Muscle tissue
T5 sequence (Q92523 whole entry): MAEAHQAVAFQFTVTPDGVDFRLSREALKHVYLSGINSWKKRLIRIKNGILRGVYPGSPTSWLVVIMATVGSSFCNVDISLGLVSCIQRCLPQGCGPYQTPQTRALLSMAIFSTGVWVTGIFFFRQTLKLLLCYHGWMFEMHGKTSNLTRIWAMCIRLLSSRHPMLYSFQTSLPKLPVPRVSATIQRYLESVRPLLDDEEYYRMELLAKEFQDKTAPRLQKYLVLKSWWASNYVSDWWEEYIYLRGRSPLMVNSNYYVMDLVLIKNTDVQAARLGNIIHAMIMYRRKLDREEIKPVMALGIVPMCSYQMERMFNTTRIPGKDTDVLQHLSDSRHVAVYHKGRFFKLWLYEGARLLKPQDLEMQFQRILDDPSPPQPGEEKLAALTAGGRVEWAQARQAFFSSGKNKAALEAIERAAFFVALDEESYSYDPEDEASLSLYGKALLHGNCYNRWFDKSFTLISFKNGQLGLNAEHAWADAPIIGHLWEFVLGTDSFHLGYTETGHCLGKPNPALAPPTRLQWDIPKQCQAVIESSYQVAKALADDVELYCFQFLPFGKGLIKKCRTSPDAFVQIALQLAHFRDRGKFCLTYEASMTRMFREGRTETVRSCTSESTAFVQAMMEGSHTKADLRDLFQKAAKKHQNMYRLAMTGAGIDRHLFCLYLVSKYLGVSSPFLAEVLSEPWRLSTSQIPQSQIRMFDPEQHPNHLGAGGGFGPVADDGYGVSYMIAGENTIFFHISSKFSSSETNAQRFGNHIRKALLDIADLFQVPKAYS

NC(=O)c1cncc(-c2noc([C@H]3COCCN3C(=O)COc3ccccc3)n2)c1
Papp [1]: 2.86 ×10⁻⁶ cm/s | IC50 [2]: > 100 µM | IC50 [3]: > 100 µM | solubility kinetic [4]: 191 µg/mL (≈ 467 µM) | IC50 [5]: 0.168 µM | IC50 [6]: 1.25 µM | logD [7]: 1.05 | IC50 [8]: > 100 µM

N#Cc1cncc(-c2noc([C@H]3CCCCN3C(=O)COc3ccccc3)n2)c1
Papp [1]: 6.36 ×10⁻⁶ cm/s | IC50 [2]: > 100 µM | IC50 [3]: > 100 µM | solubility kinetic [4]: 11 µg/mL (≈ 28.2 µM) | IC50 [5]: 0.232 µM | IC50 [6]: 0.759 µM | logD [7]: 2.49 | IC50 [8]: > 100 µM

O=C1Cc2cc(-c3noc(C4C5CC5CN4C(=O)COc4ccccc4)n3)ccc2N1 (stereo not drawn)
Papp [1]: 5.4 ×10⁻⁶ cm/s | IC50 [2]: 65 µM | IC50 [3]: 94.4 µM | solubility kinetic [4]: 38 µg/mL (≈ 91.3 µM) | IC50 [5]: 0.136 µM | IC50 [6]: 0.388 µM | logD [7]: 2.51 | IC50 [8]: 39 µM

COc1ccc(Cl)cc1S(=O)(=O)N1COc2c(F)cc(C(=O)Nc3ccc(C(=O)O)c(F)c3)cc21
Papp [1]: 1.87 ×10⁻⁶ cm/s | IC50 [2]: 1.95 µM | IC50 [3]: 10.5 µM | solubility kinetic [4]: 59 µg/mL (≈ 112 µM) | IC50 [5]: 0.0617 µM | IC50 [6]: 0.0844 µM | logD [7]: 0.63 | IC50 [8]: 4.93 µM

COc1ccc(Cl)cc1S(=O)(=O)N1CC(C)c2ccc(C(=O)Nc3ccc(C(=O)O)c(F)c3)cc21 (stereo not drawn)
Papp [1]: 1.99 ×10⁻⁶ cm/s | IC50 [2]: 0.584 µM | IC50 [3]: 3.88 µM | solubility kinetic [4]: 493 µg/mL (≈ 950 µM) | IC50 [5]: 0.0922 µM | IC50 [6]: 0.0467 µM | logD [7]: 0.6 | IC50 [8]: 1.18 µM

COc1ccc(Cl)cc1S(=O)(=O)N1CC(C)c2ccc(C(=O)Nc3ccc(C(=O)O)c(Cl)c3)cc21 (stereo not drawn)
Papp [1]: 1.77 ×10⁻⁶ cm/s | IC50 [2]: 0.686 µM | IC50 [3]: 1.63 µM | solubility kinetic [4]: 528 µg/mL (≈ 986 µM) | IC50 [5]: 0.19 µM | IC50 [6]: 0.063 µM | logD [7]: 0.57 | IC50 [8]: 1.31 µM

NC(=O)COc1cccc(-c2noc([C@H]3CCCCN3C(=O)COc3ccccc3)n2)c1
Papp [1]: 2.49 ×10⁻⁶ cm/s | IC50 [2]: 18.5 µM | IC50 [3]: > 100 µM | solubility kinetic [4]: 57 µg/mL (≈ 131 µM) | IC50 [5]: 0.0636 µM | IC50 [6]: 0.147 µM | logD [7]: 2.51 | IC50 [8]: > 100 µM

N#Cc1ccc(-c2nc([C@H]3CCCCN3C(=O)COc3ccccc3)no2)cc1
Papp [1]: 5.52 ×10⁻⁶ cm/s | IC50 [2]: 22 µM | IC50 [3]: > 100 µM | solubility kinetic [4]: 6 µg/mL (≈ 15.4 µM) | IC50 [5]: 0.0807 µM | IC50 [6]: 0.143 µM | logD [7]: 3.16 | IC50 [8]: > 100 µM

N#Cc1cccc(-c2nc([C@H]3CCCCN3C(=O)COc3ccccc3)no2)c1
Papp [1]: 3.83 ×10⁻⁶ cm/s | IC50 [2]: 15.6 µM | IC50 [3]: > 100 µM | solubility kinetic [4]: < 1 µg/mL | IC50 [5]: 0.0848 µM | IC50 [6]: 0.412 µM | logD [7]: 3.17 | IC50 [8]: > 100 µM

Nc1cncc(-c2nc([C@H]3CCCCN3C(=O)COc3ccccc3)no2)c1
Papp [1]: 5.07 ×10⁻⁶ cm/s | IC50 [2]: 19 µM | IC50 [3]: > 100 µM | solubility kinetic [4]: 19 µg/mL (≈ 50.1 µM) | IC50 [5]: 0.144 µM | IC50 [6]: 0.923 µM | logD [7]: 2.39 | IC50 [8]: > 100 µM

COc1ccc(Cl)cc1Sc1c[nH]c2ccc(C(=O)Nc3ccc(C(=O)O)cc3)cc12
Papp [1]: 0.18 ×10⁻⁶ cm/s | IC50 [2]: 4.47 µM | IC50 [3]: 22.9 µM | solubility kinetic [4]: 6 µg/mL (≈ 13.2 µM) | IC50 [5]: 0.2 µM | IC50 [6]: 0.148 µM | logD [7]: 2.21 | IC50 [8]: 2.52 µM
